Columns and labels:
[1] = system: Akt Ser 473 phosphorylation in N2a cells; assay: Insulin sensitization at subthreshold insulin in N2a cells; conditions: insulin 3 nM, 15 min; PS48 0.1 to 100 μM, 2 hrs
[2] = system: Akt Ser473 and mTOR Ser2448 phosphorylation in rat primary cortical neurons; assay: Over-activation test in insulin-stimulated primary cortical neurons; conditions: PS48 0.01 to 100 μM for 2 hrs or 24 hrs; 20 nM insulin
From the text: Western blots shown above and corresponding quantified results shown below. n=2.

[3] = system: CREB phosphorylation (pS133) in SH-SY5Y cells; assay: Endogenous p-CREB levels in Aβ42-expressing SH-SY5Y cells; conditions: PS48 50 nM; insulin 250 ng/ml 30 min
Method: Whole cell extracts were fractionated by Western and probed with monoclonal anti-pCREB pS133. […] All cells were stimulated with insulin 250 ng/ml for 30 min before harvest.

Akt-1 = target: T1, Akt-1 (Homo sapiens, UniProt P31749); assay: Fluorescence polarization, FAM-Aβ42 binding to Akt-1 in solution; conditions: PS48 10, 20, and 100 μM; results not shown
T1 construct: purchased Amsbio

transgenic mice = assay: Contextual and cued fear conditioning; type: in vivo, mouse; conditions: 16-month-old Tg mice; no significant changes
Method: Next, a series of experiments was performed to assess contextual and cued fear conditioning. 16-month-old mice WT, TG w/vehicle, and TG w/PS48 were first habituated to establish activity levels (300 sec), then presented 3 shock-tone pairings, followed by probes of contextual and cued fear memory. Prior to conditioning to the tone and foot shock, mice in all groups experienced very low levels of freezing (Baseline Freezing Day 1) (FIG. 14A) and the expected freezing to the shock (FIG. 14B).
After the conditioning procedure, when mice were placed back in the same context but without tone or shock (Day 2), freezing was measured over 8 minutes, the last 4 minutes were quantified.
On Day 3 the context was changed for 2 minutes (12 bins) and mice were exposed to a continuous tone (cue) used during conditioning for 8 minutes. […] Freezing % was quantified as the number of 10-sec epochs in which there was no beam break over the total number of epochs in the 4-minute period (24). […] Sec FIG. 14D.

mTOR = assay: Downstream mTOR phosphorylation; type: cell-based; conditions: PS48 1 or 10 μM, 2-4 hrs before doxycycline
[4] = system: LTP in rat prefrontal cortical slices; assay: Long term potentiation (LTP) in acute prefrontal cortical slices perfused with Aβ42 oligomers; type: cell-based; conditions: PS48 10 μM
Method: FIG. 3A. […] LTP was measured as % baseline excitatory postsynaptic potential (EPSP) amplitudes. […] Washout restored LTP (4).
Minor modifications were made to previous published procedures (Marshall et al., 2017; Molina-Luna et al., 2009). Deeply anesthetized rats (pentobarbital, 50 mg/kg) were decapitated, their brains quickly removed and immersed in cold (5-7° C.), oxygenated (95% O2/5% CO2) artificial cerebrospinal fluid (ACSF) containing: 126 mM NaCl, 3 mM KCl, 1.25 mM NaH2PO4, 1 mM MgSO4, 2 mM CaCl2, 26 mM NaHCO3, 10 mM dextrose. […] Control treatment was DMSO in ACSF (artificial cerebrospinal fluid, 20 μM bicuculline). Extracellular postsynaptic field potentials were recorded using an AxoClamp2B amplifier (Axon instruments) and EX1 differential amplifier (Dagan), and digitized at 10 kHz. Data was acquired using Igor Pro (Wave Metrics) and Neuromatic (neuromatic.thinkrandom.com). The stimulus intensity eliciting 50% of the maximum amplitude (˜32 μA) was used for all measurements before and after LTP induction. Baseline amplitudes were recorded for 20-30 minutes using single field stimuli applied every 30 sec to layer IV-V using concentric bipolar electrodes. Following a stable baseline period, LTP was induced by two sets of high-frequency stimulation (HFS) at 100 Hz, 60 μA (twice stimulus intensity), for 1 sec, 20 sec apart. Extracellular postsynaptic field potentials were measured from layer II-III using glass micropipettes filled with 0.9% NaCl. The amplitude rather than the slope of evoked FPs was used as a measure of the population excitatory synaptic response because in the neocortex the initial slope was contaminated by antidromic stimulation. LTP values were expressed as percentage of mean baseline EPSP±SEM. Paired two-tailed t-tests were used for statistical analysis.
LTP was measured as % baseline excitatory postsynaptic potential (EPSP) amplitudes. […] Washout restored LTP.

APP/PS-1 transgenic mice = assay: Morris water maze in APP/PS-1 transgenic mice, PS48 via diet; type: in vivo, mouse; conditions: for time spent over the platform area, acquisition probe: TG
Method: Next, a series of experiments was performed using a Morris water maze. WT mice fed standard diet (SD) reached the hidden platform in a shorter time compared to TG-SD mice. […] The PS48 effect was more pronounced within the standard diet condition. *p<0.05, **p<0.01, ANOVA; ^p<0.05, t-test. WT mice fed standard diet (SD) reached the hidden platform zone in a shorter distance compared to TG-SD mice. […] The PS48 effect was more pronounced within the standard diet condition. Memory acquisition for the location of the escape platform location was tested in 12-month-old APP/PS1 transgenic and littermate mice. The removed escape platform was located in the northeast quadrant of the tank. […] The 10 cm platform is indicated in the figure by the shaded circle in the upper right quadrant. The following metrics were quantified: (1) time spent swimming over the target area, (2) latency to attain the target area, (3) path length to platform, and (4) number of crossings over the area. […] Transgenic animals fed high fat diet (HFD) performed less well than those on standard diet. […] Lower latency values indicate better recall for the target location. […] Animals were retrained with the platform in the SE quadrant and probe phase conducted as before. FIGS. 13E-13H show path length taken, in cm, to first reach hidden platform. […] Similar probe results were obtained in the subsequent reversal trial. […] (±1 SEM, n=16 data points per group, *p<0.05, **p<0.01, ++p<0.001). […] The data has similar import to time spent over platform area above.

cells = conditions: WST-1
Method: SH-SY5Y cells were washed twice in warm Dulbecco's phosphate-buffered saline (DPBS) and incubated in 1 ml DMEM containing 0.5 mg (3-[4,5-dimethylthiazol-2-yl]-2,5-diphenyltetrazolium bromide) (MTT or WST; Molecular Probes, Eugene, OR) for 2-3 h at 37° C. and 5% CO2. The medium was aspirated and the cells were washed twice with pre-warmed DPBS. The formazan salts were dissolved in 1 ml pure ethanol before use. Cells were homogenized by repetitive pipetting and centrifuged for 5 min at 4500 rpm, and the supernatant collected. Absorbance was read against an ethanol blank at 590 nm.

T1 sequence (P31749 whole entry): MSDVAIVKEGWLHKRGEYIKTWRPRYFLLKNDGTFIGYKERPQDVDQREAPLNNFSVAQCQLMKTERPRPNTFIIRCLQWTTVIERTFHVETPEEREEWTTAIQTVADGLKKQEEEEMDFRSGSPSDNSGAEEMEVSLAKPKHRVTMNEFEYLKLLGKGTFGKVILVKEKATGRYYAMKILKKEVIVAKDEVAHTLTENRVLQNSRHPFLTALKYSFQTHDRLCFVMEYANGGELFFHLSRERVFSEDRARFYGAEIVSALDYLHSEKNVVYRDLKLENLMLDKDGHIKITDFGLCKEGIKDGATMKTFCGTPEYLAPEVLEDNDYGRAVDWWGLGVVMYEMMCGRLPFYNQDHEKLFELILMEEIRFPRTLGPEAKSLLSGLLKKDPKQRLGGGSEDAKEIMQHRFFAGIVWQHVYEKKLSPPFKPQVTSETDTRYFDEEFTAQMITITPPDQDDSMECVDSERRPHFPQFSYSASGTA

SMILES: O=C(O)/C=C(/CCc1ccc(Cl)cc1)c1ccccc1 [PS48, (Z)-5-(4-chlorophenyl)-3-phenylpent-2-enoic acid]
- phosphorylation of Ser 473 at subthreshold insulin [1]: boosting the phosphorylation of Ser 473 to a 20 nM insulin-equivalence response
- Akt Ser473 and mTOR Ser2448 phosphorylation [2]: did not over-activate Akt Ser473 or affect mTOR Ser2448 phosphorylation
- p-CREB (pS133) levels reduced by Aβ42 expression [3]: mitigated the Aβ42 effect
- effect of PS48 additions on polarization signal (Akt-1): did not affect either polarization signal
- cue fear conditioning, freezing (transgenic mice): a trend in cue conditioning paradigm favored PS48 treatment
- downstream mTOR substrate phosphorylation (mTOR): unchanged
- LTP (% baseline EPSP amplitude) inhibited by Aβ42 oligomers ([4]; Aβ42 ADDLs 0.5 μM, at the 1-hour mark after Aβ42 application): significantly improved LTP
- LTP (% baseline EPSP amplitude) inhibited by Aβ42 oligomers ([4]; by 3 hours): the beneficial effect had disappeared
- latency to reach the hidden platform, place learning and reversal tasks (APP/PS-1 transgenic mice; PS48 orally through diet, SD and HFD, more pronounced on standard diet): tended to reduce latency
- time spent over the platform area, acquisition probe (APP/PS-1 transgenic mice; HFD supplemented with PS48, p<0.01 vs Tg HFD w/V): most significant improvement
- time spent over the platform area, acquisition probe (APP/PS-1 transgenic mice; standard diet with PS48, p<0.10 vs vehicle fed): improved in this measure
- path length, acquisition and reversal data combined (APP/PS-1 transgenic mice; Tg HFD group): significantly benefited
- latency to platform, acquisition probe (APP/PS-1 transgenic mice; Tg mice on standard or high fat diet vs vehicle controls): Results favored
- path length to first reach hidden platform, probe (APP/PS-1 transgenic mice; Tg on standard or HFD diet): trended improvements in the direction of WT
- crossing numbers over removed platform location (APP/PS-1 transgenic mice; both probe trials combined, p<0.05 vs vehicle): performed significantly better than vehicle
- distance to zone to reach the hidden platform (APP/PS-1 transgenic mice; dietary PS48, SD and HFD, more pronounced on standard diet): tended to reduce distance to zone
- LD50 (cells): 250 µM

Reference: US12653799B2, “Compositions and methods for treating Alzheimer's disease” (ELEANORE BENNETT CHARITABLE TRUST #2, priority 2021, dated 2026)
